According to patent publication US20140199690A1, “MATERIALS AND METHODS FOR HIGH-THROUGHPUT DETERMINATION OF GENOME-WIDE DNA METHYLATION PROFILE” (THE HONG KONG UNIVERSITY OF SCIENCE AND TECHNOLOGY, priority 2013, published 2014):

How the values were obtained:
[1] = tested on: HEK293T cells; assay: FPDM measurement of cellular DNA methylation after 5-aza-dC treatment; format: cell-based, human; details: 3 days, 100 ng DNA
[2] = tested on: murine embryonic fibroblasts cells; details: 5 μM aza-dC; cited from earlier work

## Nc1ncn([C@H]2C[C@H](O)[C@@H](CO)O2)c(=O)n1 [5-aza-dC, 5-aza-2′-deoxycytidine]
[1]; 5 μM 5-aza-dC
  cellular DNA methylation measured by FPDM, relative to untreated control: 67.73±0.53 % of control
[1]; 10 μM 5-aza-dC
  cellular DNA methylation measured by FPDM, relative to untreated control: 45.16±8.84 % of control
[2]
  hypomethylation relative to the untreated control: about 42%
